Patent US20230310388A1, “Methods and Compositions for Treating Fungal Infections” (Neoculi Pty Ltd, priority 2020, published 2023)
Converted amounts (≈) assume the structure as drawn. “And” between values parts separate entries of the source, which are not always exact repeats. Identical values can stand only once.

What was measured:
Candida albicans [1] = test: CLSI broth microdilution MIC (Example 4); assay type: cell-based; conditions: for antifungal activity against the two isolates of Candida albicans: summary in words
Description: (§1) Antifungal minimum inhibitory concentration (MIC) testing was undertaken as recommended by the CLSI. Briefly, antifungal susceptibility tests were performed for amphotericin B, robenidine (NCL812) and robenidine (NCL) analogs (NCL004, NCL020, NCL023, NCL024, NCL062, NCL094, NCL097, NCL110, NCL113, NCL114, NCL115, NCL135, NCL139, NCL180, NCL181, NCL195, NCL219, NCL220, NCL228, NCL247, NCL250, NCL259, NCL260, NCL263, NCL265, NCL269, NCL274) by standard broth microdilution method (CLSI) in RPMI 1640. Various concentrations (ranging from high to low) of the selected compounds were prepared in RPMI 1640 medium by double dilution in 96-well microtitre plates. Each well contained an inoculum of approximately 2×10^3 cells/mL. The wells without addition of drugs served as negative (no inoculum) and positive (inoculum only) growth controls. Microtitre plates were incubated at 35° C. for 24-48 hours. […] Antifungal MICs were determined for each isolate in duplicate; if the values obtained were different, the MIC test was repeated a third time.

Cryptococcus neoformans [2] = test: CLSI broth microdilution MIC (Example 4); assay type: cell-based
Description: as §1

Candida albicans [3] = test: CLSI broth microdilution MIC (Example 5); assay type: cell-based
Description: as §1, with “robenidine” for “robenidine (NCL)”, “(NCL23, NCL24, NCL97,” for “(NCL004, NCL020, NCL023, NCL024, NCL062, NCL094, NCL097, NCL110,”, “NCL113,” for “NCL113, NCL114,”, “NCL115,” for “NCL115, NCL135, NCL139, NCL180, NCL181,”, “NCL220,” for “NCL220, NCL228, NCL247, NCL250,”, “NCL265)” for “NCL260, NCL263, NCL265, NCL269, NCL274)”

Cryptococcus neoformans [4] = test: CLSI broth microdilution MIC (Example 5); assay type: cell-based
Description: as §1, with “robenidine” for “robenidine (NCL)”, “(NCL23, NCL24, NCL97,” for “(NCL004, NCL020, NCL023, NCL024, NCL062, NCL094, NCL097, NCL110,”, “NCL113,” for “NCL113, NCL114,”, “NCL115,” for “NCL115, NCL135, NCL139, NCL180, NCL181,”, “NCL220,” for “NCL220, NCL228, NCL247, NCL250,”, “NCL265)” for “NCL260, NCL263, NCL265, NCL269, NCL274)”

Candida albicans [5] = test: CLSI broth microdilution MIC (Example 6); assay type: cell-based
Description: (§2) Antifungal minimum inhibitory concentration (MIC) testing was undertaken as recommended by the CLSI (1). Briefly, antifungal susceptibility tests were performed for amphotericin B, robenidine (NCL812) and 10 robenidine analogs (NCL023, NCL024, NCL097, NCL113, NCL115, NCL195, NCL219, NCL220, NCL259, NCL265) by standard broth microdilution method (CLSI) in RPMI 1640. Various concentrations (ranging from high to low) of the selected compounds were prepared in RPMI 1640 medium by double dilution in 96-well microtitre plates. Each well contained an inoculum of approximately 2×10^3 cells/mL. The wells without addition of drugs served as negative (no inoculum) and positive (inoculum only) growth controls. Microtitre plates were incubated at 35° C. for 24-48 hours. […] Antifungal MICs were determined for each isolate in duplicate; if the values obtained were different, the MIC test was repeated a third time.

Cryptococcus neoformans [6] = test: CLSI broth microdilution MIC (Example 6); assay type: cell-based
Description: as §2

C. gattii = test: CLSI broth microdilution MIC (Example 6); assay type: cell-based, Cryptococcus gattii
Description: as §2

[7] = system: Candida albicans ATCC14053; test: Broth micro-dilution screen at 16 μg/mL and MIC (Example 9); assay type: cell-based; conditions: for MIC: C. albicans ATCC14053, test range 0.25-64 μg/mL, duplicate; for Screen at 16 μg/mL: single concentration 16 μg/mL, Growth or No growth of C. albicans ATCC14053
Description: The antifungal activity of 201 NCL analogs against Candida albicans ATCC14053 in vitro was investigated. A broth micro-dilution method was used, according to CLSI guidelines as described. NCL analogs were dissolved in DMSO and originally screened at a single concentration of 16 μg/mL.

[8] = clinical isolate C. albicans 12-93301752 Azole Resistant
[9] = clinical isolate C. albicans 14-90045999 Azole Resistant
[10] = clinical isolate C. albicans 15-45171061
[11] = clinical isolate C. albicans 15-91329871
[12] = clinical isolate C. albicans 16-24136919 Azole Resistant
[13] = clinical isolate C. albicans 16-46177400
[14] = clinical isolate C. albicans 16-90050810
[15] = clinical isolate C. albicans 16-90054237
[16] = clinical isolate C. albicans 18-144-00196
[17] = clinical isolate C. albicans 18-148-08188 Azole Resistant
[18] = human clinical isolate C. neoformans var grubii 16-90050434
[19] = human clinical isolate C. neoformans var grubii 17-90028233
[20] = human clinical isolate C. neoformans var grubii 17-93996464
[21] = human clinical isolate C. neoformans var grubii 17-93996964
[22] = human clinical isolate C. gatti 17-90232099
[23] = human clinical isolate C. gattii 16-90050373
[24] = human clinical isolate C. gattii 17-90028211
[25] = human clinical isolate C. gattii 17-90028217
[26] = human clinical isolate C. gattii 17-90028242
[27] = human clinical isolate C. neoformans serotype A/D hybrid

MIC at 24-48 hours (Candida albicans [1]; Candida albicans ATCC 90028) | MIC at 24-48 hours (Candida albicans [1]; Candida albicans SA3) | MIC at 24-48 hours (Cryptococcus neoformans [2]; Cryptococcus neoformans SA1) | MIC at 24-48 hours (Cryptococcus neoformans [2]; Cryptococcus neoformans SA2) | MIC (Candida albicans [3]; C. albicans SA3) | MIC (Candida albicans [3]; Candida albicans ATCC 90028) | MIC (Candida albicans [3]; [8]) | MIC (Candida albicans [3]; [9]) | MIC (Candida albicans [3]; [10]) | MIC (Candida albicans [3]; [11]) | MIC (Candida albicans [3]; [12]) | MIC (Candida albicans [3]; [13]) | MIC (Candida albicans [3]; [14]) | MIC (Candida albicans [3]; [15]) | MIC (Candida albicans [3]; [16]) | MIC (Candida albicans [3]; [17]) | MIC (Cryptococcus neoformans [4]; Cryptococcus neoformans SA1) | MIC (Cryptococcus neoformans [4]; Cryptococcus neoformans SA2) | MIC (Candida albicans [5]; C. albicans SA3) | SMILES | activity against one or more isolates of Cryptococcus neoformans and Candida albicans (Candida albicans [3]; summary in words) | other results
32 µg/mL | 8 µg/mL | 16 µg/mL | 16 µg/mL | 8 µg/mL | 32 µg/mL | 8 µg/mL | 8 µg/mL | 4 µg/mL | 8 µg/mL | 4 to 8 µg/mL | 8 µg/mL | 8 µg/mL | 4 µg/mL | 8 to 16 µg/mL | 8 µg/mL | 16 µg/mL | 16 µg/mL | 8 µg/mL | Cl.N=C(NN=Cc1cc(O)c(O)c(O)c1)NN=Cc1cc(O)c(O)c(O)c1 [NCL097] | highly active | antifungal activity against the two isolates of Candida albicans (Candida albicans [1]): high antifungal activity; activity against all tested isolates of Cryptococcus neoformans and Candida albicans (Candida albicans [3]; summary in words): active; MIC (Candida albicans [5]; Candida albicans ATCC 90028): 32 µg/mL; MIC (Cryptococcus neoformans [6]; Cryptococcus neoformans SA1): 16 µg/mL; MIC (Cryptococcus neoformans [6]; Cryptococcus neoformans SA2): 16 µg/mL; MIC (Cryptococcus neoformans [6]; human clinical isolate C. neoformans serotype A/D hybrid, listed as NCL97): 16 µg/mL and 32 µg/mL; MIC (Cryptococcus neoformans [6]; [18]): 16 to 32 µg/mL; MIC (Cryptococcus neoformans [6]; [19]): 32 µg/mL; MIC (Cryptococcus neoformans [6]; [20]): 32 µg/mL; MIC (Cryptococcus neoformans [6]; [21]): 32 µg/mL; MIC (C. gattii; [22]): 32 µg/mL; MIC (C. gattii; [23]): 16 µg/mL; MIC (C. gattii; [24]): 16 µg/mL; MIC (C. gattii; [25]): 32 µg/mL; MIC (C. gattii; [26]): 32 µg/mL; MIC [7]: 0.5 µg/mL; Screen at 16 μg/mL [7]: No growth
>32 µg/mL | >32 µg/mL | 4 µg/mL | 4 µg/mL | >32 µg/mL | >32 µg/mL | 8 µg/mL | 8 to 16 µg/mL | 8 µg/mL | 8 µg/mL | 8 µg/mL | 16 µg/mL | 16 µg/mL | 8 µg/mL | 8 µg/mL | 8 µg/mL | 4 µg/mL | 4 µg/mL | >32 µg/mL | CN(C)c1ccc(/C=N/NC(=N)N/N=C/c2ccc(N(C)C)cc2)cc1.Cl [NCL113] | highly active | MIC (Candida albicans [5]; Candida albicans ATCC 90028): >32 µg/mL; MIC (Cryptococcus neoformans [6]; Cryptococcus neoformans SA1): 4 µg/mL; MIC (Cryptococcus neoformans [6]; Cryptococcus neoformans SA2): 4 µg/mL; MIC (Cryptococcus neoformans [6]; [27]): 4 µg/mL; MIC (Cryptococcus neoformans [6]; [18]): 4 µg/mL; MIC (Cryptococcus neoformans [6]; [19]): 4 µg/mL; MIC (Cryptococcus neoformans [6]; [20]): 4 µg/mL; MIC (Cryptococcus neoformans [6]; [21]): 4 µg/mL; MIC (C. gattii; [22]): 4 µg/mL; MIC (C. gattii; [23]): 2 to 4 µg/mL; MIC (C. gattii; [24]): 4 µg/mL; MIC (C. gattii; [25]): 4 to 8 µg/mL; MIC (C. gattii; [26]): 2 to 4 µg/mL; MIC [7]: 4 µg/mL and 8 µg/mL; Screen at 16 μg/mL [7]: No growth
>32 µg/mL | >32 µg/mL | 8 µg/mL | 8 µg/mL | >32 µg/mL | >32 µg/mL | >16 µg/mL | 8 µg/mL | >16 µg/mL | >16 µg/mL | >16 µg/mL | >16 µg/mL | >16 µg/mL | >16 µg/mL | >16 µg/mL | >16 µg/mL | 8 µg/mL | 8 µg/mL | >32 µg/mL | COc1ccc(C=NNC(=N)NN=Cc2ccc(OC)c(OC)c2)cc1OC.Cl [NCL115] | highly active | MIC (Candida albicans [5]; Candida albicans ATCC 90028): >32 µg/mL; MIC (Cryptococcus neoformans [6]; Cryptococcus neoformans SA1): 8 µg/mL; MIC (Cryptococcus neoformans [6]; Cryptococcus neoformans SA2): 8 µg/mL; MIC (Cryptococcus neoformans [6]; [27]): >32 µg/mL; MIC (Cryptococcus neoformans [6]; [18]): >32 µg/mL; MIC (Cryptococcus neoformans [6]; [19]): >32 µg/mL; MIC (Cryptococcus neoformans [6]; [20]): >32 µg/mL; MIC (Cryptococcus neoformans [6]; [21]): >32 µg/mL; MIC (C. gattii; [22]): >32 µg/mL; MIC (C. gattii; [23]): >32 µg/mL; MIC (C. gattii; [24]): >32 µg/mL; MIC (C. gattii; [25]): >32 µg/mL; MIC (C. gattii; [26]): >32 µg/mL; Screen at 16 μg/mL [7]: Growth
32 µg/mL (≈ 87.1 µM) | 32 µg/mL (≈ 87.1 µM) | 2 µg/mL (≈ 5.44 µM) | 4 µg/mL (≈ 10.9 µM) | 32 µg/mL (≈ 87.1 µM) | 32 µg/mL (≈ 87.1 µM) | 4 µg/mL (≈ 10.9 µM) | >16 µg/mL | >16 µg/mL | 8 µg/mL (≈ 21.8 µM) | 4 µg/mL (≈ 10.9 µM) | >16 µg/mL | >16 µg/mL | 8 µg/mL (≈ 21.8 µM) | 8 µg/mL (≈ 21.8 µM) | 4 µg/mL (≈ 10.9 µM) | 2 µg/mL (≈ 5.44 µM) | 4 µg/mL (≈ 10.9 µM) | 32 µg/mL (≈ 87.1 µM) | Nc1nc(NN=Cc2ccc(F)cc2)cc(NN=Cc2ccc(F)cc2)n1 [NCL220] | highly active | antifungal activity against the two isolates of Candida albicans (Candida albicans [1]): high antifungal activity; MIC (Candida albicans [5]; Candida albicans ATCC 90028): 32 µg/mL (≈ 87.1 µM); MIC (Cryptococcus neoformans [6]; Cryptococcus neoformans SA1): 2 µg/mL (≈ 5.44 µM); MIC (Cryptococcus neoformans [6]; Cryptococcus neoformans SA2): 4 µg/mL (≈ 10.9 µM); MIC (Cryptococcus neoformans [6]; [27]): 32 µg/mL (≈ 87.1 µM); MIC (Cryptococcus neoformans [6]; [18]): 32 µg/mL (≈ 87.1 µM); MIC (Cryptococcus neoformans [6]; [19]): >32 µg/mL; MIC (Cryptococcus neoformans [6]; [20]): 32 µg/mL (≈ 87.1 µM); MIC (Cryptococcus neoformans [6]; [21]): 32 µg/mL (≈ 87.1 µM); MIC (C. gattii; [22]): 4 µg/mL (≈ 10.9 µM); MIC (C. gattii; [23]): >32 µg/mL; MIC (C. gattii; [24]): 32 µg/mL (≈ 87.1 µM); MIC (C. gattii; [25]): 4 µg/mL (≈ 10.9 µM); MIC (C. gattii; [26]): 32 µg/mL (≈ 87.1 µM); MIC [7]: >64 µg/mL; Screen at 16 μg/mL [7]: Growth
